Results: patent US20230365566A1, “HETEROCYCLIC AMIDES AND THEIR USE FOR MODULATING SPLICING” (REMIX THERAPEUTICS INC., priority 2020, published 2023)

Columns and labels:
Format in all cases: cell-based
[1] = tested on: HTT mRNA alternative junction (AJ); test: Splicing RT-qPCR assay, increase of HTT alternative junction (AJ) mRNA; settings: A673 or K562 cells, 24 hours compound treatment, concentration having 50% response in AJ increase
Method: (§1) Compounds described herein were used to modulate RNA transcript abundance in cells. The expression of a target mRNA was measured by detecting the formation of an exon-exon junction in the canonical transcript (CJ). A compound mediated exon-inclusion event was detected by observing an increase in formation of a new junction with an alternative exon (AJ). Real-time qPCR assays were used to detect these splicing switches and interrogate the potency of various compounds towards different target genes. A high-throughput real time quantitative PCR (RT-qPCR) assay was developed to measure these two isoforms of the mRNA (CJ and AJ) for an exemplary gene, HTT, together with a control housekeeping gene, GAPDH or GUSB or PPIA, used for normalization. Briefly, the A673 or K562 cell line was treated with various compounds described herein (e.g., compounds of Formula (I)). After treatment, the levels of the HTT mRNA targets were determined from each sample of cell lysate by cDNA synthesis followed by qPCR.
(§2) The A673 cell line was cultured in DMEM with 10% FBS. Cells were diluted with full growth media and plated in a 96-well plate (15,000 cells in 100 ul media per well). The plate was incubated at 37° C. with 5% CO2 for 24 hours to allow cells to adhere. An 11-point 3-fold serial dilution of the compounds was made in DMSO then diluted in media in an intermediate plate. Compounds were transferred from the intermediate plate to the cell plate with the top dose at a final concentration of 10 uM in the well. Final DMSO concentration was kept at or below 0.25%. The cell plate was returned to the incubator at 37° C. with 5% CO2 for an additional 24 hours.
(§3) The K562 cell line was cultured in IMDM with 10% FBS. For K562, cells were diluted with full growth media and plated in either a 96-well plate (50,000 cells in 50 uL media per well) or a 384-well plate (8,000-40,000 cells in 45 uL media per well). An 11-point 3-fold serial dilution of the compounds were made in DMSO then diluted in media in an intermediate plate. Compound was transferred from the intermediate plate to the cell plate with the top dose at a final concentration of 10 uM in the well. Final DMSO concentration was kept at or below 0.25%. Final volume was 100 uL for 96-well plate and 50 uL for 384-well plate. The cell plate was then placed in an incubator at 37° C. with 5% CO2 for 24 hours.
(§4) The cells were then gently washed with 50 uL-100 uL cold PBS before proceeding to addition of lysis buffer. 30 uL-50 uL of room temperature lysis buffer with DNAse I (and optionally RNAsin) was added to each well. Cells were shaken/mixed thoroughly at room temperature for 5-10 minutes for lysis to take place and then 3 uL-5 uL of room temperature stop solution was added and wells were shaken/mixed again. After 2-5 minutes, the cell lysate plate was transferred to ice for RT-qPCR reaction setup. The lysates could also be frozen at −80° C. for later use.
(§5) In some cases, a direct lysis buffer was used. An appropriate volume of 3× lysis buffer (10 mM Tris, 150 mM NaCl, 1.5%-2.5% Igepal and 0.1-1 U/uL RNAsin, pH 7.4) was directly added to either K562 or A673 cells in media and mixed by pipetting 3 times. The plates were then incubated at room temperature with shaking/rocking for 20-50 minutes to allow for lysis to take place. After this time, the cell lysate plate was transferred to ice to set up for the RT-qPCR reactions. The lysates could also be frozen at −80° C. for later use.
(§6) To set up 10 uL RT-qPCR reactions, cell lysates were transferred to 384-well qPCR plates containing the master mix according to the table below. The plates were sealed, gently vortexed, and spun down before the run. The volumes were adjusted accordingly in some instances where the reaction was carried in 20 uL. The table below summarizes the components of the RT-qPCR reactions:
(§7) The RT-qPCR reaction was performed using a QuantStudio (ThermoFisher) under the following fast cycling conditions. […]

[2] = tested on: Target C CJ mRNA; test: Gene panel canonical junction qPCR assay, Target C; settings: protocol of Example 42, read-out: Target C IC50 (decrease in CJ mRNA levels)
Method: as §1, §2, §3
(§8) The data analysis was performed by first determining the ACt vs the housekeeper gene. This ACt was then normalized against the DMSO control (AACt) and converted to RQ (relative quantification) using the 2^(−ΔΔCt) equation. The RQ were then converted to a percentage response by arbitrarily setting an assay window of 3.5 ΔCt for HTT-CJ and an assay window of 9 ΔCt for HTT-AJ. […] The percentage response was then fitted to the 4 parametric logistic equation to evaluate the concentration dependence of compound treatment. The increase in AJ mRNA is reported as AC50 (compound concentration having 50% response in AJ increase) while the decrease in CJ mRNA levels is reported as IC50 (compound concentration having 50% response in CJ decrease).
(§9) Additional studies were carried out for a larger panel of genes using the protocol provided above. The junction between flanking upstream and downstream exons was used to design canonical junction qPCR assays. At least one of the forward primer, reverse primer or the CY5-labeled 5′ nuclease probe (with 3′ quencher such as ZEN/Iowa Black FQ) was designed to overlap with the exon junction to capture the CJ mRNA transcript. BLAST was used to confirm the specificity of the probeset and parameters such as melting temperature, GC content, amplicon size, and primer dimer formation are considered during their design. Data for the decrease in CJ mRNA levels for three exemplary genes (HTT, SMN2, and Target C) analyzed in this panel are reported as IC50 (compound concentration having 50% response in CJ decrease).

[3] = tested on: SMN2 CJ mRNA; test: Gene panel canonical junction qPCR assay, SMN2; settings: protocol of Example 42, read-out: SMN2 IC50 (decrease in CJ mRNA levels)
Method: as §1, §2, §3, §8, §9

[4] = tested on: HTT mRNA canonical junction (CJ); test: Splicing RT-qPCR assay, decrease of HTT canonical junction (CJ) mRNA; settings: A673 or K562 cells, 24 hours compound treatment, concentration having 50% response in CJ decrease
Method: as §1, §2, §3, §4, §5, §6, §7

[5] = tested on: HTT CJ mRNA; test: Gene panel canonical junction qPCR assay, HTT; settings: protocol of Example 42, read-out: HTT IC50 (decrease in CJ mRNA levels)
Method: as §1, §2, §3, §8, §9

IC50 [2]	IC50 [3]	IC50 [5]	Compound	AC50 [1]	AC50 [4]
1 to 10 µM	> 10 µM	0.1 to 1 µM	Cc1cn2cc(NC(=O)c3ccc(C4CCN(C)CC4)c4cn(C)nc34)cc(F)c2n1 [Compound 209, N-[8-fluoro-2-methylimidazo[1,2-a]pyridin-6-yl]-2-methyl-4-(1-methylpiperidin-4-yl)indazole-7-carboxamide]	0.1 to 1 µM	0.1 to 1 µM
1 to 10 µM	< 0.1 µM	0.1 to 1 µM	CCN1CCC(c2ccc(C(=O)Nc3cc(F)c4nc(C)cn4c3)c3nn(C)cc23)CC1 [Compound 210, 4-(1-ethylpiperidin-4-yl)-N-[8-fluoro-2-methylimidazo[1,2-a]pyridin-6-yl]-2-methylindazole-7-carboxamide]	0.1 to 1 µM	0.1 to 1 µM
> 10 µM	< 0.1 µM	1 to 10 µM	Cc1cn2cc(NC(=O)c3ccc(C4C[C@@H](C)N[C@@H](C)C4)c4cn(C)nc34)cc(F)c2n1 (stereo partly drawn) [Compound 211, 4-[(cis-)-2,6-dimethylpiperidin-4-yl]-N-[8-fluoro-2-methylimidazo[1,2-a]pyridin-6-yl]-2-methylindazole-7-carboxamide trifluoroacetic acid]	1 to 10 µM	1 to 10 µM
> 10 µM	0.1 to 1 µM	1 to 10 µM	Cc1cn2cc(NC(=O)c3ccc(C4CC(C)(C)NC(C)(C)C4)c4cn(C)nc34)cc(F)c2n1 [Compound 212, N-[8-fluoro-2-methylimidazo[1,2-a]pyridin-6-yl]-2-methyl-4-(2,2,6,6-tetramethylpiperidin-4-yl)indazole-7-carboxamide]	> 10 µM	1 to 10 µM
> 10 µM	1 to 10 µM	1 to 10 µM	Cc1cc2c(N3CCNCC3)ccc(C(=O)Nc3cc(F)c4cn(C)nc4c3)c2o1 [Compound 217, N-(4-fluoro-2-methylindazol-6-yl)-2-methyl-4-(piperazin-1-yl)-1-benzofuran-7-carboxamide]	1 to 10 µM	1 to 10 µM
0.1 to 1 µM	< 0.1 µM	0.1 to 1 µM	Cc1cn2cc(NC(=O)c3ccc(N4CCNC(C)C4)c4cn(C)nc34)cc(F)c2n1 (centres unmarked) [Compound 228]	0.1 to 1 µM	0.1 to 1 µM
1 to 10 µM	< 0.1 µM	0.1 to 1 µM	Cc1cn2cc(NC(=O)c3ccc(N4CCN(C)C(C)C4)c4cn(C)nc34)cc(F)c2n1 (centres unmarked) [Compound 229]	0.1 to 1 µM	0.1 to 1 µM
> 10 µM	> 10 µM	> 10 µM	Cn1cc2ccc(NC(=O)c3ccc(N4CCNCC4)c4cn(C)nc34)cc2n1 [Compound 230]	> 10 µM	> 10 µM
> 10 µM	> 10 µM	> 10 µM	Cn1cc2c(F)cc(NC(=O)c3ccc(N4CCNCC4)c4cn(C)nc34)cc2n1 [Compound 231]	> 10 µM	> 10 µM
1 to 10 µM	< 0.1 µM	1 to 10 µM	Cc1nc2c(F)cc(NC(=O)c3ccc(N4CCNCC4)c4cn(C)nc34)cc2o1 [Compound 234]	0.1 to 1 µM	1 to 10 µM
> 10 µM	< 0.1 µM	1 to 10 µM	Cc1nc2c(F)cc(NC(=O)c3ccc(N4CCNCC4)c4cn(C)nc34)cc2s1 [Compound 235]	1 to 10 µM	1 to 10 µM
> 10 µM	< 0.1 µM	1 to 10 µM	Cc1cn2cc(NC(=O)c3ccc(N4CCNCC4)c4cn(C)nc34)cc(C)c2n1 [Compound 238]	1 to 10 µM	1 to 10 µM
1 to 10 µM	< 0.1 µM	0.1 to 1 µM	CCC1CN(c2ccc(C(=O)Nc3cc(F)c4nc(C)cn4c3)c3nn(C)cc23)CCN1 (centres unmarked) [Compound 239]	0.1 to 1 µM	0.1 to 1 µM
1 to 10 µM	< 0.1 µM	0.1 to 1 µM	Cc1cn2cc(NC(=O)c3ccc(N4CCNC(C)(C)C4)c4cn(C)nc34)cc(F)c2n1 [Compound 240]	0.1 to 1 µM	0.1 to 1 µM
1 to 10 µM	< 0.1 µM	1 to 10 µM	Cc1cn2cc(NC(=O)c3ccc(N4CCNC5(CC5)C4)c4cn(C)nc34)cc(F)c2n1 [Compound 241]	1 to 10 µM	1 to 10 µM
1 to 10 µM	< 0.1 µM	0.1 to 1 µM	Cc1cn2cc(NC(=O)c3ccc(N4CC5(CNC5)C4)c4cn(C)nc34)cc(F)c2n1 [Compound 242]	1 to 10 µM	0.1 to 1 µM
1 to 10 µM	< 0.1 µM	0.1 to 1 µM	Cc1cn2cc(NC(=O)c3ccc(N4CC5(CN(C)C5)C4)c4cn(C)nc34)cc(F)c2n1 [Compound 243]	0.1 to 1 µM	0.1 to 1 µM
> 10 µM	< 0.1 µM	1 to 10 µM	Cc1cn2cc(NC(=O)c3ccc(N4CCNCC4)c4cn(C)nc34)ncc2n1 [Compound 246]	1 to 10 µM	1 to 10 µM
> 10 µM	> 10 µM	> 10 µM	Cc1cn2nc(NC(=O)c3ccc(N4CCNCC4)c4cn(C)nc34)cc2c(C)n1 [Compound 247]	> 10 µM	> 10 µM
> 10 µM	< 0.1 µM	> 10 µM	Cc1cn2cc(NC(=O)c3ccc(N4CCC(NC(C)(C)C)C4)c4cn(C)nc34)cc(F)c2n1 (centres unmarked) [Compound 249]	> 10 µM	> 10 µM

Compound	IC50 [2]	IC50 [3]	IC50 [5]	AC50 [1]	AC50 [4]
Cc1cn2cc(NC(=O)c3ccc(N(C)C4CC(C)(C)NC(C)(C)C4)c4cn(C)nc34)cc(F)c2n1 [Compound 244]	> 10 µM	0.1 to 1 µM	> 10 µM	> 10 µM	> 10 µM
Cc1cn2cc(NC(=O)c3ccc(N(C)C4CCN(C)CC4)c4cn(C)nc34)cc(F)c2n1 [Compound 245]	0.1 to 1 µM	< 0.1 µM	0.1 to 1 µM	0.1 to 1 µM	0.1 to 1 µM
